Test results taken from the supplement of paper PMC13380429.
± gives the standard deviation of the averaged measurements.

Legend:
Details in all cases: 72 h
Caco-2 [1] = experiment: cell viability relative to DMSO; higher = less toxic
Calu-3 [2] = experiment: as above
HepG2 [3] = experiment: as above
U2OS [4] = experiment: as above
Vero E6 [5] = experiment: as above
Caco-2 [6] = experiment: relative viability EC50 (midpoint between 100% and the lowest measured viability); higher = less toxic
Calu-3 [7] = experiment: as above
HepG2 [8] = experiment: as above
U2OS [9] = experiment: as above
Vero E6 [10] = experiment: as above
Caco-2 [11] = experiment: drug sensitivity score (DSS) for viability; higher = more toxic; extreme values may be limits of the assay
Calu-3 [12] = experiment: as above
HepG2 [13] = experiment: as above
U2OS [14] = experiment: as above
Vero E6 [15] = experiment: as above

| SMILES | cell viability (Caco-2 [1]; 1 nM) [%] | cell viability (Caco-2 [1]; 10 nM) [%] | cell viability (Caco-2 [1]; 100 nM) [%] | cell viability (Caco-2 [1]; 1000 nM) [%] | cell viability (Caco-2 [1]; 10000 nM) [%] | cell viability (Calu-3 [2]; 1 nM) [%] | cell viability (Calu-3 [2]; 10 nM) [%] | cell viability (Calu-3 [2]; 100 nM) [%] | cell viability (Calu-3 [2]; 1000 nM) [%] | cell viability (Calu-3 [2]; 10000 nM) [%] | cell viability (HepG2 [3]; 1 nM) [%] | cell viability (HepG2 [3]; 10 nM) [%] | cell viability (HepG2 [3]; 100 nM) [%] | cell viability (HepG2 [3]; 1000 nM) [%] | cell viability (HepG2 [3]; 10000 nM) [%] | cell viability (U2OS [4]; 1 nM) [%] | cell viability (U2OS [4]; 10 nM) [%] | cell viability (U2OS [4]; 100 nM) [%] | cell viability (U2OS [4]; 1000 nM) [%] | cell viability (U2OS [4]; 10000 nM) [%] | cell viability (Vero E6 [5]; 1 nM) [%] | cell viability (Vero E6 [5]; 10 nM) [%] | cell viability (Vero E6 [5]; 100 nM) [%] | cell viability (Vero E6 [5]; 1000 nM) [%] | cell viability (Vero E6 [5]; 10000 nM) [%] | relative viability EC50 (Caco-2 [6]) [µM] | relative viability EC50 (Calu-3 [7]) [µM] | relative viability EC50 (HepG2 [8]) [µM] | relative viability EC50 (U2OS [9]) [µM] | relative viability EC50 (Vero E6 [10]) [µM] | drug sensitivity score (Caco-2 [11]) | drug sensitivity score (Calu-3 [12]) | drug sensitivity score (HepG2 [13]) | drug sensitivity score (U2OS [14]) | drug sensitivity score (Vero E6 [15]) |
| --- | --- | --- | --- | --- | --- | --- | --- | --- | --- | --- | --- | --- | --- | --- | --- | --- | --- | --- | --- | --- | --- | --- | --- | --- | --- | --- | --- | --- | --- | --- | --- | --- | --- | --- | --- |
| O=C(O)/C=C\c1c[nH]cn1 [cis-Urocanic acid] | 93.8 ± 14 | 96.7 ± 3.2 | 92.3 ± 7.2 | 91.5 ± 8.9 | 98.1 ± 5.9 | 107 ± 4.3 | 108 ± 11 | 100 ± 4.8 | 98 ± 8.6 | 96.6 ± 3 | 97.1 | 95.9 | 88.1 | 102 | 95.2 | 99.2 ± 3 | 97.5 ± 2.8 | 97.7 ± 1.1 | 97.4 ± 4 | 100 ± 1.8 | 99.5 ± 3.1 | 99.8 | 100 ± 4.2 | 100.8 ± 0.64 | 99 ± 1.8 | > 10 | > 10 | > 10 | > 10 | > 10 | 1.25 ± 1.8 | 0 | 0 | 0 | 0 |
| N=C(NCc1ccc(Cl)cc1)SCCCc1c[nH]cn1 [clobenpropit] | 97.5 | 96.2 | 101 | 93.5 | 104 | 108 | 100 | 103 | 101 | 82.4 | 94.2 | 106 | 105 | 102 | 84 | 110 | 104 | 99.5 | 98.3 | 99.6 | 101 | 100 | 97.4 | 93.3 | 97.5 | > 10 | > 10 | > 10 | > 10 | > 10 | 0 | 0.3 | 0.2 | 0 | 0 |
| CC(=O)c1c(O)cc(C)oc1=O [dehydroacetic-acid] | 101 | 107 | 91.9 | 104 | 94.9 | 105 | 107 | 98.2 | 101 | 101 | 100 | 103 | 99.9 | 96.7 | 103 | 99.2 | 101 | 96.2 | 103 | 100 | 98 | 93.6 | 92.5 | 101 | 95.4 | > 10 | > 10 | > 10 | > 10 | > 10 | 0 | 0 | 0 | 0 | 0 |
| CNCC(O)c1ccc(OC(=O)C(C)(C)C)c(OC(=O)C(C)(C)C)c1 (stereo not given) [dipivefrine] | 104 | 94 | 102 | 90.4 | 85 | 97.9 | 102 | 106 | 96.3 | 109 | 97.5 | 94.1 | 98.2 | 97.7 | 84.3 | 99.4 | 95.1 | 97.3 | 96.2 | 97.1 | 100 | 100 | 93.3 | 98.3 | 97.4 | > 10 | > 10 | > 10 | > 10 | > 10 | 0.9 | 0 | 0.5 | 0 | 0 |
| CN(CCOc1ccc(NS(C)(=O)=O)cc1)CCc1ccc(NS(C)(=O)=O)cc1 [dofetilide] | 91.1 | 99.9 | 99.1 | 97.1 | 102 | 111 | 90.4 | 101 | 98.6 | 104 | 100 | 102 | 89.5 | 117 | 118 | 100 | 102 | 102 | 96.6 | 97 | 92.6 | 104 | 90.2 | 98.1 | 110 | > 10 | > 10 | > 10 | > 10 | > 10 | 0 | 0 | 0 | 0 | 0 |
| NCCc1ccc(O)c(O)c1 [dopamine] | 106 | 97.7 | 92.5 | 91.1 | 89.9 | 100 | 100 | 100 | 99.8 | 109 | 106 | 107 | 95.1 | 115 | 99.6 | 101 | 96.6 | 101 | 100 | 100 | 103 | 106 | 102 | 97 | 99.4 | > 10 | > 10 | > 10 | > 10 | > 10 | 0 | 0 | 0 | 0 | 0 |
| CC(C)(O)CNc1nc(Nc2ccnc(C(F)(F)F)c2)nc(-c2cccc(C(F)(F)F)n2)n1 [enasidenib] | 94.5 | 115 | 107 | 102 | 79.3 | 96 | 106 | 103 | 87.8 | 92.7 | 106 | 96.9 | 110 | 106 | 91.7 | 101 | 104 | 99.9 | 104 | 92 | 98.2 | 94.2 | 97.9 | 99.6 | 101 | > 10 | > 10 | > 10 | > 10 | > 10 | 0.5 | 0.5 | 0 | 0 | 0 |
| CCc1cccc(CC)c1NC(=O)CN(CC(=O)O)CC(=O)O [etifenin] | 83.1 | 104 | 95.7 | 124 | 93.3 | 94.6 | 104 | 105 | 90.5 | 90.6 | 104 | 84.1 | 106 | 95.9 | 113 | 87.1 | 97.2 | 90.1 | 103 | 106 | 106 | 93.7 | 106 | 97.4 | 95 | > 10 | > 10 | > 10 | > 10 | > 10 | 0 | 0 | 0 | 0 | 0 |
| Cn1c(=O)c2c(ncn2CCO)n(C)c1=O [etofylline] | 103 | 98 | 90.5 | 102 | 97.6 | 97.8 | 99.6 | 97 | 98.2 | 102 | 101 | 110 | 88.8 | 96.6 | 102 | 102 | 97.4 | 97 | 98.8 | 98.4 | 104 | 98 | 103 | 103 | 103 | > 10 | > 10 | > 10 | > 10 | > 10 | 0 | 0 | 0 | 0 | 0 |
| Cc1cnc(Nc2ccc(OCCN3CCCC3)cc2)nc1Nc1cccc(S(=O)(=O)NC(C)(C)C)c1 [fedratinib] | 101 | 97.1 | 99.3 | 79.6 | 11.9 | 107 | 102 | 100 | 98.5 | 18.3 | 120 | 100 | 101 | 74.2 | 22.2 | 104 | 97.4 | 99.2 | 86.2 | 0.8 | 96 | 104 | 104 | 94.2 | 0.3 | 1.61 | 3.04 | 1.32 | 2.05 | 2.71 | 8.1 | 4.7 | 8 | 7.8 | 6.4 |
| CC1(C)O[C@@H]2C[C@H]3[C@@H]4C[C@H](F)C5=CC(=O)C=C[C@]5(C)[C@H]4[C@@H](O)C[C@]3(C)[C@]2(C(=O)CO)O1 [flunisolide] | 105 | 103 | 91.5 | 87.7 | 98.5 | 98.5 | 96.1 | 101 | 94.5 | 88.5 | 105 | 104 | 97.3 | 97.3 | 99.2 | 102 | 93.9 | 91.4 | 93.8 | 94.7 | 96.6 | 97.6 | 95.3 | 94.2 | 102 | > 10 | > 10 | > 10 | > 10 | > 10 | 1 | 0.2 | 0 | 0 | 0 |
| c1ccc(OCc2ccc(CCCN3CCOCC3)cc2)cc1 [fomocaine] | 87.8 | 92.8 | 100 | 93.4 | 97.1 | 110 | 101 | 108 | 96.3 | 113 | 96.7 | 106 | 97.1 | 101 | 90.4 | 93.7 | 94.6 | 98.5 | 100 | 101 | 94.9 | 95.7 | 93.1 | 100 | 100 | > 10 | > 10 | > 10 | > 10 | > 10 | 0 | 0 | 0 | 0 | 0 |
| O=C(O)P(=O)(O)O [foscarnet] | 97.4 | 103 | 97.5 | 102 | 102 | 110 | 105 | 106 | 91.9 | 93.4 | 102 | 105 | 99.9 | 104 | 96.7 | 104 | 100 | 99.2 | 99.1 | 102 | 106 | 104 | 98.3 | 99.5 | 101 | > 10 | > 10 | > 10 | > 10 | > 10 | 0 | 0 | 0 | 0 | 0 |
